Results: PubChem BioAssay AID270 (DTP/NCI, 2004)
Where “and” joins values, the source holds several entries; their conditions need not be identical. Equal entries are not always repeated. Results filed as inconclusive are left out.

Tested on: BDF1 mice, s.c. Lewis lung carcinoma, T/C %
Assay: NCI In Vivo Anticancer Drug Screen. Data for tumor model Lewis Lung Carcinoma (subcutaneous) in B6D2F1 (BDF1) mice
Experimental: The antitumor activity of compounds was measured in mice bearing transplantable tumors. Survival or tumor size were measured and the results are expressed as the measurement made in the treated group (T) divided by the measurement made in the vehicle treated control group (C). The tumor model used in this assay is Lewis Lung Carcinoma (subcutaneous) in B6D2F1 (BDF1) mice

SMILES: CC(C)(CC(=O)O)CC(=O)OCC(=O)[C@@]1(O)CC[C@H]2[C@@H]3CCC4=CC(=O)C=C[C@]4(C)[C@H]3[C@@H](O)C[C@@]21C
- T/C (endpoint: mean tumor weight, dose: 40.0 mg/kg/injection, schedule: Q01DX011 (sc), vehicle: steriod suspending solution, higher = larger tumour): 69 % of control
- T/C (endpoint: mean tumor weight, dose: 80.0 mg/kg/injection, schedule: Q01DX011 (sc), vehicle: steriod suspending solution, higher = larger tumour): 76 % of control
- T/C (endpoint: mean tumor weight, dose: 160.0 mg/kg/injection, schedule: Q01DX011 (sc), vehicle: steriod suspending solution, higher = larger tumour): 60 % of control
- T/C (endpoint: mean tumor weight, dose: 320.0 mg/kg/injection, schedule: Q01DX011 (sc), vehicle: steriod suspending solution, higher = larger tumour): 51 % of control and 57 % of control
- T/C (endpoint: mean tumor weight, dose: 640.0 mg/kg/injection, schedule: Q01DX011 (sc), vehicle: steriod suspending solution, higher = larger tumour): 31 % of control

SMILES: CC(=O)Nc1ccc2nc3ccc(NC(C)=O)cc3[n+](-c3ccccc3)c2c1
- T/C (endpoint: mean tumor weight, dose: 12.5 mg/kg/injection, schedule: Q01DX011 (ip), vehicle: saline, higher = larger tumour): 61 % of control
- T/C (endpoint: mean tumor weight, dose: 25.0 mg/kg/injection, schedule: Q01DX011 (ip), vehicle: saline, higher = larger tumour): 79 % of control
- T/C (endpoint: mean tumor weight, dose: 50.0 mg/kg/injection, schedule: Q01DX011 (ip), vehicle: saline, higher = larger tumour): 59 % of control

SMILES: O=NN(CCCl)C(=O)NC1CCC(O)CC1 (stereo unspecified)
- T/C (endpoint: median survival time, dose: 10.0 mg/kg/injection, schedule: Q01DX001 (ip), vehicle: Klucel (hydroxypropylcellulose) (HPC), higher = longer survival): 104 % of control
- T/C (endpoint: median survival time, dose: 10.0 mg/kg/injection, schedule: Q01DX001 (ip), vehicle: other, higher = longer survival): 112 % of control and 119 % of control
- T/C (endpoint: median survival time, dose: 20.0 mg/kg/injection, schedule: Q01DX001 (ip), vehicle: Klucel (hydroxypropylcellulose) (HPC), higher = longer survival): 105 % of control
- T/C (endpoint: median survival time, dose: 20.0 mg/kg/injection, schedule: Q01DX001 (ip), vehicle: other, higher = longer survival): 105 % of control
- T/C (endpoint: median survival time, dose: 40.0 mg/kg/injection, schedule: Q01DX001 (ip), vehicle: Klucel (hydroxypropylcellulose) (HPC), higher = longer survival): 186 % of control
- T/C (endpoint: median survival time, dose: 40.0 mg/kg/injection, schedule: Q01DX001 (ip), vehicle: other, higher = longer survival): 202 % of control
- T/C (endpoint: median survival time, dose: 80.0 mg/kg/injection, schedule: Q01DX001 (ip), vehicle: Klucel (hydroxypropylcellulose) (HPC), higher = longer survival): 108 % of control

SMILES: CC1CC(C)(O)C2C3(C)CCCC2(COC3=O)C12CCC1(CCOC1=O)O2 (stereo unspecified)
- T/C (endpoint: median survival time, dose: 2.5 mg/kg/injection, schedule: Q01DX009 (ip), vehicle: saline with Tween-80, higher = longer survival): 109 % of control
- T/C (endpoint: median survival time, dose: 5.0 mg/kg/injection, schedule: Q01DX009 (ip), vehicle: saline with Tween-80, higher = longer survival): 108 % of control
- T/C (endpoint: median survival time, dose: 10.0 mg/kg/injection, schedule: Q01DX009 (ip), vehicle: saline with Tween-80, higher = longer survival): 100 % of control

SMILES: COC1=CC(=O)N(C(=O)C2CSC(C(CO)NC(=O)c3csc(/C=N/O)n3)=N2)C1 (stereo unspecified)
- T/C (endpoint: median survival time, dose: 100.0 mg/kg/injection, schedule: Q01DX009 (ip), vehicle: Klucel (hydroxypropylcellulose) (HPC), higher = longer survival): 92 % of control
- T/C (endpoint: median survival time, dose: 200.0 mg/kg/injection, schedule: Q01DX009 (ip), vehicle: Klucel (hydroxypropylcellulose) (HPC), higher = longer survival): 92 % of control

SMILES: C1CC[N-]CC1.C1CC[N-]CC1.C1CC[N-]CC1.C1CC[N-]CC1.[Cl][Co][Cl]
- T/C (endpoint: mean tumor weight, dose: 15.0 mg/kg/injection, schedule: Q01DX011 (ip), vehicle: other, higher = larger tumour): 63 % of control
- T/C (endpoint: mean tumor weight, dose: 30.0 mg/kg/injection, schedule: Q01DX011 (ip), vehicle: other, higher = larger tumour): 68 % of control
- T/C (endpoint: mean tumor weight, dose: 60.0 mg/kg/injection, schedule: Q01DX011 (ip), vehicle: other, higher = larger tumour): 56 % of control
- T/C (endpoint: median survival time, dose: 2.5 mg/kg/injection, schedule: Q01DX009 (ip), vehicle: saline, higher = longer survival): 94 % of control
- T/C (endpoint: median survival time, dose: 10.0 mg/kg/injection, schedule: Q01DX009 (ip), vehicle: saline, higher = longer survival): 105 % of control
- T/C (endpoint: median survival time, dose: 20.0 mg/kg/injection, schedule: Q01DX009 (ip), vehicle: saline, higher = longer survival): 95 % of control
- T/C (endpoint: median survival time, dose: 40.0 mg/kg/injection, schedule: Q01DX009 (ip), vehicle: saline, higher = longer survival): 93 % of control

SMILES: O=C1N(Cl)C(=O)C(c2ccc(Cl)cc2)(c2ccc(Cl)cc2)N1Cl
- T/C (endpoint: mean tumor weight, dose: 17.0 mg/kg/injection, schedule: Q01DX011 (ip), vehicle: other, higher = larger tumour): 84 % of control
- T/C (endpoint: mean tumor weight, dose: 33.0 mg/kg/injection, schedule: Q01DX011 (ip), vehicle: other, higher = larger tumour): 68 % of control
- T/C (endpoint: mean tumor weight, dose: 50.0 mg/kg/injection, schedule: Q01DX011 (ip), vehicle: other, higher = larger tumour): 23 % of control
- T/C (endpoint: mean tumor weight, dose: 75.0 mg/kg/injection, schedule: Q01DX011 (ip), vehicle: other, higher = larger tumour): 25 % of control
- T/C (endpoint: mean tumor weight, dose: 112.0 mg/kg/injection, schedule: Q01DX011 (ip), vehicle: other, higher = larger tumour): 36 % of control
- T/C (endpoint: mean tumor weight, dose: 224.0 mg/kg/injection, schedule: Q01DX011 (ip), vehicle: other, higher = larger tumour): 52 % of control
- T/C (endpoint: median survival time, dose: 12.5 mg/kg/injection, schedule: Q01DX009 (ip), vehicle: Klucel (hydroxypropylcellulose) (HPC), higher = longer survival): 95 % of control
- T/C (endpoint: median survival time, dose: 25.0 mg/kg/injection, schedule: Q01DX009 (ip), vehicle: Klucel (hydroxypropylcellulose) (HPC), higher = longer survival): 87 % of control
- T/C (endpoint: median survival time, dose: 50.0 mg/kg/injection, schedule: Q01DX009 (ip), vehicle: Klucel (hydroxypropylcellulose) (HPC), higher = longer survival): 101 % of control
